According to PMC12040169 (PLOS Biology, 2025):

Experiment: in vitro
Settings: human, hela cells, % viability

Compound | viability at 28.5 h, 10 µM
COc1ccc(/C=C(\C)C(=O)NCc2ccccc2OC2CCNC2)cc1OC (stereo not drawn) [CBK034157T] | 90%
O=C(COc1ccc2oc3ccccc3c2c1)c1ccccc1 [CBK268931] | 99.5%
Cn1c(COc2ccccc2Cl)nnc1SCC(=O)N1c2ccccc2Sc2ccccc21 [CBK266001] | 96.5%
CCCn1ccnc1CNc1nc(C)nc2c1c(C)nn2C [CBK307459] | 85%
c1coc(CNc2ncc(-c3ccc4c(c3)OCO4)c(-c3cccs3)n2)c1 [CBK286414] | 93.9%
COC(=O)c1cccc(CN2CCC3(CC2)OCCc2c3[nH]c3ccc(F)cc23)c1 [CBK040326] | 100%
CCOC(=O)C1=c2s/c(=C\c3cccnc3)c(=O)n2C(N)=C(C#N)C1c1cccnc1 (stereo not drawn) [CBK262549] | 107%
CN(C)CCn1c(=O)c2c(ncn2C)n(C)c1=O [CBK012590] | 115%
CNC(=S)NCc1nc(-c2ccc(C)cc2)no1 [CBK288418] | 97.3%
COc1ccccc1OCC(=O)N1CCC2(CCNC2)C1 (stereo not drawn) [CBK156703C] | 99.6%
O=C(NCc1ccncc1)C1CC1c1ccccc1 (stereo not drawn) [CBK288242] | 107%
O=C(CCc1cccnc1)NC1Cc2ccccc2C1 [CBK200352] | 97.4%
Cc1nc2ccc(C(=O)NCCCc3ccccn3)cc2s1 [CBK282478] | 88.2%
Cc1nc(C)c(-c2cnc(NS(=O)(=O)c3ccc(Cl)cc3)nc2)s1 [CBK005935] | 86.9%
CC(C)c1noc(NCc2nnc3n2CCCCC3)n1 [CBK306352] | 113%
O=C(O)CNC(=O)CN1C(=O)c2ccccc2C1=O [CBK264077] | 98.6%
COc1cccc(CC(=O)N(CCC#N)Cc2ccco2)c1 [CBK304859] | 92.5%
Cc1cccnc1C1(O)CCN(C(=O)Cc2ccccc2Cl)CC1 [CBK283682] | 98.7%
CCOc1ccc(NC(NC(=O)Nc2ccccc2)C(Cl)(Cl)Cl)cc1 (stereo not drawn) [CBK261294] | 99.8%
CN(C)C(=O)Cn1nc(C(c2ccccc2)c2ccccc2)oc1=O [CBK283747] | 92.6%
Cc1[nH]c(=O)[nH]c(=O)c1Cc1cccc2ccccc12 [CBK111494] | 92.8%
COc1cc(S(=O)(=O)N2CCC(C(N)=O)CC2)ccc1Br [CBK268766] | 82.6%

Compound | viability at 28.5 h, 10 µM
O=C(c1c(F)cc(-c2cncc(-c3ccc(O)cc3)n2)cc1F)N1CCOCC1 [CBK131973] | 90.5%
Cc1cc(C(=O)N2C[C@H]3CC[C@](O)(c4ccc(F)cc4)[C@H]3C2)on1 [CBK284354] | 92.4%
O=C(O)c1ccc(S(=O)(=O)c2ccc3c(c2)C(=O)N(c2ccc(Sc4ccc([N+](=O)[O-])cc4)cc2)C3=O)cc1 [CBK262869] | 104%
O=S(=O)(Nc1cccc(Cl)c1)c1ccc(OC(F)(F)F)cc1 [CBK044769] | 109%
O=C(c1ccccc1F)N1CCC(n2c(=O)oc3ccccc32)CC1 [CBK284346] | 90.1%
COC(=O)c1cn([C@H]2CO[C@H]3[C@@H]2OC[C@@H]3NC(=O)Nc2ccc(OC)cc2)nn1 [CBK289500] | 94.2%
OC(CN1CCN(Cc2ccc3c(c2)OCO3)CC1)c1ccccc1 (stereo not drawn) [CBK074759] | 82.8%
O=C(CN1CCC(O)(Cc2ccccc2)CC1)N1CCCCCC1 [CBK283500] | 96.9%
COCc1cccc(-c2ccc(C(=O)N(C)CCN(C)C)c(N(C)C)n2)c1 [CBK106091] | 103%
CC(=O)N1C[C@@H]2CCCCN(CC(=O)NC3CC3)[C@@H]2C1 [CBK285508] | 101%
Cc1ccc(S(=O)(=O)N2CCOCC2)cc1-c1cnc(N)c(-c2ccc(O)cc2)n1 [CBK122519] | 98.7%
O=C(NCCc1ccc(O)cc1)c1ccc2[nH]ccc2c1 [CBK149063] | 89.5%
CCCS(=O)(=O)N1CCN(C(=O)COc2ccc3ccccc3c2)CC1 [CBK264290] | 95.4%
C=CCNC(=O)c1ccc(-c2cccc(N(C)C)c2)nc1NCc1cccnc1 [CBK076566] | 91.3%
COc1ccc(Nc2cc(Cl)ccc2C(=O)Nc2ccncc2)cn1 [CBK107434] | 96.3%
Fc1ccccc1CN1CCC(Oc2nccnc2OCc2cccnc2)CC1 [CBK083157T] | 91.8%
Cc1ccc(C(=O)N2CCN(S(=O)(=O)N3CCCCCC3)CC2)cc1 [CBK269249] | 101%
O=C1CC2(CCC3C(C(=O)N4CCCCC4)C32)Oc2ccccc21 (stereo not drawn) [CBK284947] | 105%
CSc1nc(N)c2nccnc2n1 [CBK025779] | 104%
CC(C)OC(=O)N1CCC(C(=O)NC(c2ccccc2)c2ccc3ccccc3n2)CC1 (stereo not drawn) [CBK059642] | 106%
Cc1cccc(C(=O)NCc2nnc(SCC(=O)N3CCOCC3)n2C)c1 [CBK269723] | 95.3%
COc1cc(-c2nccnc2NCCCO)cc(OC)c1OC [CBK037274] | 105%

Compound | viability at 28.5 h, 10 µM
COC(=O)c1ccccc1NC(=O)COc1ccc(Cl)c2cccnc12 [CBK266037] | 104%
Cn1ccnc1C(NC(=O)N1CCCC1)c1ccc(F)c(F)c1 (stereo not drawn) [CBK283782] | 89%
CCN1c2ccc(-c3cncn3CCCn3ccnc3C)cc2CC1C (stereo not drawn) [CBK281924] | 90.7%
COc1ccc(S(=O)(=O)N(CC(=O)Nc2ccc(F)cc2)c2ccccc2)cc1 [CBK264141] | 96.5%
CS(=O)(=O)Nc1c[nH]nc1C1CCCN(c2cccc(F)c2C#N)C1 (stereo not drawn) [CBK305444] | 95.2%
CC1(CNS(=O)(=O)Cc2cc(F)cc(F)c2)COC1 [CBK281413] | 91.3%
CC(NC(=O)N(C)Cc1ccc2ccccc2n1)c1nncn1C(C)C (stereo not drawn) [CBK307197] | 92.9%
O=C(O)CC/C(=N\NC(=O)c1cccnc1)c1ccccc1 [CBK261305] | 97.2%
Cn1c(=O)c2c(nc(CN3CCC(Cc4ccccc4)CC3)n2CC(=O)c2ccccc2)n(C)c1=O [CBK236846] | 88%
Cn1ccnc1C1(O)CCN(C(=O)Nc2ccccc2Cl)CC1 [CBK282278] | 89.3%
c1ccc(-c2nnc(-c3ccncc3)nc2-c2ccccc2)cc1 [CBK270061] | 81.1%
O=C(O)CCC(=O)N1N=C(c2c(-c3ccccc3)c3cc(Br)ccc3[nH]c2=O)CC1c1ccc([N+](=O)[O-])cc1 (stereo not drawn) [CBK267543] | 104%
Cc1n[nH]c(C)c1C1COCCN1C(=O)c1cccc(F)c1 (stereo not drawn) [CBK305105] | 86.9%
CC1(C)[C@H](Cc2cc(COc3ccccc3)on2)C[C@@H]1NS(C)(=O)=O [CBK289703] | 89.5%
O=C(Nc1cccnc1)N1CCN(c2ccccc2)CC1 [CBK145043] | 89.5%
CCN(CC)C(=O)c1cccc(NS(=O)(=O)c2cccc(C(=O)O)c2)c1 [CBK296943] | 97.6%
O=C(c1cncnc1)N1CCN(c2ncccn2)CC1 [CBK144515] | 88%
CCCc1nnc([C@H]2CCN(Cc3ccc(S(C)(=O)=O)cc3)C2)o1 [CBK289402] | 100%
O=C(CC1C(=O)NCCN1C(=O)Nc1ccc(OCc2ccccc2)cc1)Nc1ccc(F)cc1 (stereo not drawn) [CBK086203] | 113%
COc1ccc(CNC(=O)CN2CCCCC2Cn2cccn2)cc1 (stereo not drawn) [CBK305379] | 93.1%
C=CCN1CCc2cc(-c3cncn3CC(=O)NC(C)(C)C)ccc21 [CBK281923] | 86.7%
Oc1ccc(CN2CCN(c3ncccn3)CC2)cc1 [CBK261567] | 105%

Compound | viability at 28.5 h, 10 µM
COc1ccc(-c2nnc3c4ccccc4c(C)nn23)cc1S(=O)(=O)NC(C)c1ccccc1 (stereo not drawn) [CBK266605] | 104%
CC(=O)NCc1ccc(-c2ccc(C(=O)NC3(c4ccccc4)CCCC3)c(C)n2)cc1 [CBK285891] | 96%
Nc1nc2c(ncn2[C@@H]2O[C@H](CO)[C@H](O)C2O)c(=O)[nH]1 (stereo partly drawn) [CBK201173] | 96%
Cc1nc2ccc(C(=O)NCCCN3CC(C)CC(C)C3)cc2[nH]1 (stereo not drawn) [CBK283298] | 85.4%
Cc1ccc(C)n1C1CC(C)(C)NC(C)(C)C1 [CBK019116] | 91.1%
CN(C)C(CNS(=O)(=O)c1cc2c(cc1Br)NC(=O)CO2)c1ccc(F)cc1 (stereo not drawn) [CBK298296] | 105%
COc1cc(CC(=O)Nc2cccc(-c3ccc(SC(F)(F)F)cc3)c2)cc(OC)c1OC [CBK132426] | 100%
CCc1nc2ccc(C(=O)NCc3ccc4c(c3)OCO4)cn2c1N(CCN(C)C)CC1CC1 [CBK145472] | 97.1%
CC(=O)c1ccc(-c2cnc(N)c(N3CCC[C@@H]3CO)n2)s1 [CBK063438] | 97.9%
COc1cccc(-c2ccc(C(=O)NCc3ccccc3SC)c(N3CCN(C(=O)c4ccco4)CC3)n2)c1 [CBK106025] | 94.3%
CC(=O)NC(=NOCc1ccc(Br)cc1)c1nonc1NC(C)=O [CBK265342] | 87.8%
CN1CCN([C@H]2[C@@H]3OC[C@@H](O3)[C@@H](NCc3ccc(CO)o3)[C@@H]2O)CC1 [CBK288823] | 91.5%
COc1cc(F)cc(OC2CCNCC2)c1NC(=O)Cc1c[nH]c2ccccc12 [CBK050246T] | 91%
O=C(O)c1ccc(Nc2nc3ccccc3nc2NS(=O)(=O)c2ccc(Cl)cc2)cc1 [CBK296072] | 98.5%
Cc1cc(NS(=O)(=O)N2CCCCC2)no1 [CBK269947] | 100%
COC(=O)c1cc(C(=O)Nc2ccc(OCCC(N)=O)cc2)c[nH]1 [CBK305486] | 103%
CC(C)Cc1csc2nc(-c3ccc(Br)cc3)oc(=O)c12 [CBK026692] | 96.7%
Nc1cc(S(=O)(=O)C(F)(F)F)ccc1C(=O)O [CBK286646] | 87%
COc1nccnc1N1CCN(CCc2c[nH]c3ccccc23)CC1 [CBK084231] | 89.2%
O=C(CN1CCCC2(CCN(C(=O)Cc3c[nH]c4ccccc34)C2)C1)Nc1ncccn1 (stereo not drawn) [CBK132048] | 86.7%

Same assay, conditions: human, hela cells, % viability, bulk resorufin, single well

Compound | viability at 28.5 h, 10 µM
COc1ccc2[nH]cc(CC(=O)Nc3cccc(-c4ccc5c(c4)COC4(CCNCC4)O5)c3)c2c1 [CBK105859] | 78%
